{"source": "patent US20200016152A1", "about": "“TREATMENT OF DISEASES” (Ampio Pharmaceuticals, Inc., priority 2010, published 2020)", "key": {"RhoA": {"tested_on": "RhoA", "assay": "Rho activation assay (GLISA) in retinal endothelial cells", "type": "cell-based, human", "conditions": "for active Rho A levels induced: thrombin alone", "method": "This experiment was performed using a commercially-available Rho activation assay (GLISA) purchased from Cytoskeleton, Denver, Colo., following the manufacturer's protocol. Briefly, passage 8 or 12 human retinal endothelial cells (ACBRI 181, Applied Cell Biology Research Institute, Kirkland, Wash.) were cultured on fibronectin-coated (1 μg/cm^2) 6-well tissue culture plates using EGM-2 culture medium (Lonza) for 24 hours in a 37° C. incubator with 5% CO2 (30,000 cells/well in total volume of 3 ml). Then, the medium was aspirated and replaced with Ultraculture medium supplemented with 0.1% fetal bovine serum, L-glutamine, sodium pyruvate, penicillin/streptomycin and ITSS (insulin, transferrin sodium selenium) (all from Lonza) to serum starve the cells and reduce the background level of RhoA. The cells were cultured for 24 hours in a 37° C. incubator with 5% CO2. Test compounds diluted in HBSS were placed in the incubator to equilibrate before addition to the cells. Then, 150 μl of each test compound was added to the appropriate culture wells, and the plates were incubated in the incubator for an additional 15 minutes. Then, thrombin was added to appropriate wells. After 1 minute, the cells were washed one time with 1.5 ml phosphate buffered saline and were then lysed with 100 μl GLISA lysis buffer supplemented with protease inhibitors. The extracts were scraped, transferred to microcentrifuge tubes and transferred to ice to preserve the active form of RhoA. All extracts were then cleared of debris by spinning at 10,000 rpms for 2 minutes at 4° C. The supernatants were transferred to new tubes and placed back on ice. Aliquots of each extract were removed for the GLISA assay and for protein determinations. All protein concentrations were within 10%, and the extracts were used at the achieved concentrations (equates to 15 total protein per well). The GLISA assay was performed using the reagents supplied in the kit."}, "[1]": {"tested_on": "human retinal endothelial cells", "assay": "ECIS transendothelial electrical resistance (TER), retinal endothelial cells, 96-well plates", "type": "cell-based", "method": "Assays were performed to determine the effect of DA-DKP on transendothelial electrical resistance (TER) of human renal glomerular microvascular endothelial cells (ACBRI 128, Cell Systems Corporation (exclusive distributor for Applied Cell Biology Research Institute), Kirkland, Wash.). Electrical resistance was measured using the electric cell-substrate impedance sensing (ECIS) system (ECISZθ, obtained from Applied Biophysics) with 8-well multiple electrode plates (8W10E). Each well of the plates was coated with 5 μg/cm^2 fibronectin in HBSS by adding the fibronectin in a volume of 100 μl per well and incubating the plates for 30 minutes in a 37° C. incubator with 5% CO2. The fibronectin solution was removed, and 400 μl of EGM-2 culture medium (Lonza) was added to each well. The plates were connected to the ECISZθ system and were electrically stabilized. […] ECIS (resistance) was monitored for 90 hours.\nAssays were performed to determine the effect of DA-DKP on transendothelial electrical resistance (TER) of human retinal endothelial cells (ACBRI 181, Cell Systems Corporation (exclusive distributor for Applied Cell Biology Research Institute), Kirkland, Wash.). Electrical resistance was measured using the electric cell-substrate impedance sensing (ECIS) system (ECISZθ, obtained from Applied Biophysics) as described in Example 1, but using 96-well multiple electrode plates […]."}, "[2]": {"tested_on": "human renal glomerular microvascular endothelial cells", "assay": "ECIS transendothelial electrical resistance (TER), glomerular endothelial cells", "type": "cell-based", "method": "Assays were performed to determine the effect of DA-DKP on transendothelial electrical resistance (TER) of human renal glomerular microvascular endothelial cells (ACBRI 128, Cell Systems Corporation (exclusive distributor for Applied Cell Biology Research Institute), Kirkland, Wash.). Electrical resistance was measured using the electric cell-substrate impedance sensing (ECIS) system (ECISZθ, obtained from Applied Biophysics) with 8-well multiple electrode plates (8W10E). Each well of the plates was coated with 5 μg/cm^2 fibronectin in HBSS by adding the fibronectin in a volume of 100 μl per well and incubating the plates for 30 minutes in a 37° C. incubator with 5% CO2. The fibronectin solution was removed, and 400 μl of EGM-2 culture medium (Lonza) was added to each well. The plates were connected to the ECISZθ system and were electrically stabilized. The EGM-2 medium was aspirated and replaced with 200 μl of EGM-2 culture medium containing 100,000 cells per well. The plates were reconnected to the ECISZθ system and incubated for 24 hours in a 37° C. incubator with 5% CO2. The EGM-2 medium was aspirated and replaced with 400 μl of fresh EGM-2 culture medium per well. The plates were reconnected to the ECISZθ system and incubated for 6 hours in a 37° C. incubator with 5% CO2. Solutions of the test compounds in HBSS were prepared and placed in the incubator to equilibrate. The test compounds were then added to appropriate wells at the following final concentrations: DA-DKP (100 μM) (Sigma) and TNFα (1 ng/ml) (Sigma). ECIS (resistance) was monitored for 90 hours."}, "[3]": {"tested_on": "human retinal endothelial cells", "assay": "Actin stress fiber formation (rhodamine-phalloidin F-actin staining)", "type": "cell-based", "conditions": "15 minutes and 3 hours", "method": "Passage 12 human retinal endothelial cells (ACBRI 181, Cell Systems Corporation (exclusive distributor for Applied Cell Biology Research Institute), Kirkland, Wash.) were seeded into 16-chamber glass slides coated with 5 μg/cm^2 fibronectin at 5000 cells per well in a total volume of 200 μl of EGM-2 medium (Lonza). The slides were cultured in a 37° C. incubator with 5% CO2 for 48 hours with daily medium changes. Then, the test compounds (DA-DKP, S1P and TNFα), diluted in Hanks Balanced Salt Solution (HBSS; Lonza), were added to give the following final concentrations: DA-DKP (100 μM) (Sigma), TNFα (1 ng/ml) (Sigma), and S1P (1 μM) (Sigma). The slides were incubated with the test compounds for 15 minutes or 3 hours in a 37° C. incubator with 5% CO2. After this incubation, the medium was aspirated, and the cells were fixed using 3.6% formaldehyde in phosphate buffered saline (PBS) for ten minutes at room temperature. All wells were then washed two times with 100 μl PBS. The cells were permeabilized using a 0.1% Triton X-100 in PBS for 5 minutes. All wells were then washed two times with 100 μl PBS, and 50 μl of a 1:40 dilution of rhodamine-phalloidin (Invitrogen) in PBS was added to the cells to stain for F-actin and left on the cells for 20 minutes at room temperature. All wells were then washed two times with 100 μl PBS. Then 100 μl PBS was added to each well and the cells were observed and photographed using an inverted microscope using a rhodamine (ex530/em590) filter."}, "[4]": {"conditions": "passage 12 cells, 1.0 μM + 0.1 U/ml thrombin"}, "[5]": {"conditions": "passage 12 cells, 1.0 μM, no thrombin"}, "[6]": {"conditions": "passage 8 cells, 100 μM + 0.1 U/ml thrombin"}, "[7]": {"conditions": "passage 8 cells, 100 μM, no thrombin"}, "[8]": {"conditions": "passage 12 cells, 100 μM + 0.1 U/ml thrombin"}, "[9]": {"conditions": "passage 12 cells, 100 μM, no thrombin"}}, "note": "“Also recorded” adds a separate entry of the source.", "data": [{"compound": "C[C@@H]1C[C@H]2[C@@H]3CCC4=CC(=O)C=C[C@]4(C)[C@@]3(F)[C@@H](O)C[C@]2(C)[C@@]1(O)C(=O)CO", "note": "[Dexamethasone]", "values": [{"measurement": "Mean OD (active RhoA)", "setting": "RhoA; [4]", "result": 0.826}, {"measurement": "Percent Inhibition vs. Thrombin", "setting": "RhoA; [4]", "result": 33.48, "unit": "%"}, {"measurement": "Mean OD (active RhoA)", "setting": "RhoA; [5]", "result": 0.428}, {"measurement": "Percent Inhibition vs. Untreated Control", "setting": "RhoA; [5]", "result": 5.83, "unit": "%"}]}, {"compound": "C[C@@H]1NC(=O)[C@H](CC(=O)O)NC1=O", "note": "[DA-DKP]", "values": [{"measurement": "ECIS (TER) increase, comparison of doses", "setting": "[1]; 100 μM", "result": "greatest increase"}, {"measurement": "ECIS (TER)", "setting": "[1]; doses 0.5 μM, 5.0 μM, 50 μM and 100", "result": "dose-dependent increase in ECIS (TER)"}, {"measurement": "effect on TNFα-induced drop in ECIS", "setting": "[2]; 100 μM DA-DKP with TNFα 1 ng/ml, not significant", "result": "prevent some of the TNFα-induced drop in ECIS"}, {"measurement": "ECIS increase persisting after treatment", "setting": "[2]; 100 μM alone", "result": 35, "unit": "h"}, {"measurement": "start of ECIS increase after treatment", "setting": "[2]; 100 μM alone", "result": "about 5.0 hours"}, {"measurement": "time at which ECIS increase reached significance after treatment", "setting": "[2]; 100 μM alone", "result": 12, "unit": "h"}, {"measurement": "ECIS (resistance) as compared to untreated cells", "setting": "[2]; 100 μM alone, glomerular endothelial cells, monitored 90 hours", "result": "increase of ECIS"}, {"measurement": "Mean OD (active RhoA)", "setting": "RhoA; [6]", "result": 0.377}, {"measurement": "Percent Inhibition vs. Thrombin", "setting": "RhoA; [6]", "result": 40.04, "unit": "%"}, {"measurement": "Mean OD (active RhoA)", "setting": "RhoA; [7]", "result": 0.110}, {"measurement": "Percent Inhibition vs. Untreated Control", "setting": "RhoA; [7]", "result": "−7.88", "unit": "%"}, {"measurement": "Mean OD (active RhoA)", "setting": "RhoA; [8]", "result": 0.752}, {"measurement": "Percent Inhibition vs. Thrombin", "setting": "RhoA; [8]", "result": 46.82, "unit": "%"}, {"measurement": "Mean OD (active RhoA)", "setting": "RhoA; [9]", "result": 0.389}, {"measurement": "Percent Inhibition vs. Untreated Control", "setting": "RhoA; [9]", "result": 14.52, "unit": "%"}, {"measurement": "effect on cortical rings of S1P", "setting": "[3]; 100 μM DA-DKP with S1P 1 μM", "result": "enhance the cortical rings; also recorded: strengthen the protective effects of S1P"}, {"measurement": "effect on stress fibers caused by TNFα", "setting": "[3]; 100 μM DA-DKP with TNFα 1 ng/ml", "result": "decreased the stress fiber formation and/or the thickness of the fibers; also recorded: reversed the formation of stress fibers induced by TNFα"}]}, {"compound": "CCCCCCCCCCCCC/C=C/[C@@H](O)[C@@H](N)COP(=O)(O)O", "note": "[S1P, sphingosine-1 phosphate, reference compound]", "values": [{"measurement": "F-actin staining pattern", "setting": "[3]; S1P 1 μM alone", "result": "actin cortical rings"}]}, {"compound": "Thrombin", "values": [{"measurement": "Mean OD (active RhoA)", "setting": "RhoA; passage 8 cells, 0.1 U/ml thrombin alone", "result": 0.561}, {"measurement": "active Rho A levels induced", "setting": "RhoA; passage 8 cells", "result": "very high"}, {"measurement": "Mean OD (active RhoA)", "setting": "RhoA; passage 12 cells, 0.1 U/ml thrombin alone", "result": 1.013}, {"measurement": "active Rho A levels induced", "setting": "RhoA; passage 12 cells", "result": "very high"}]}, {"compound": "COc1cc2ncnc(Nc3ccc(Oc4ccccc4)cc3)c2cc1OC", "note": "[Src-1 Inhibitor]", "values": [{"measurement": "Mean OD (active RhoA)", "setting": "RhoA; [4]", "result": 0.534}, {"measurement": "Percent Inhibition vs. Thrombin", "setting": "RhoA; [4]", "result": 85.85, "unit": "%"}, {"measurement": "Mean OD (active RhoA)", "setting": "RhoA; [5]", "result": 0.349}, {"measurement": "Percent Inhibition vs. Untreated Control", "setting": "RhoA; [5]", "result": 23.21, "unit": "%"}]}]}
